Test results reported in patent EP0397567A1, “Antitumor substance, process for its preparation and pharmaceutical compositions containing it” (RHONE-POULENC SANTE, priority 1989, dated 1990).

Test: antitumor properties (studies mentioned, no method described)
Settings: qualitative statement compared with girolline; no test system, dose or model printed

SMILES | propriétés antitumorales
NC[C@@H](Cl)[C@H](O)c1c[nH]c(N)n1 (racemic) [racémique thréo, amino-3 (amino-2 1H-imidazolyl-4)-1 chloro-2 propanol-1-(1RS,2RS)] | conserve les propriétés antitumorales remarquables de la girolline
NC[C@H](Cl)[C@H](O)c1c[nH]c(N)n1 (racemic) [racémique érythro] | totalement inactifs
